# Reference: patent publication US8796256B2 (Janssen Pharmaceutica NV, priority 2010, dated 2014)
# Molecular target: T1, ERR1 (also known as ERR-α or ERR-1) (Homo sapiens, UniProt P11474)
# T1 sequence (P11474 193-421 limits assumed): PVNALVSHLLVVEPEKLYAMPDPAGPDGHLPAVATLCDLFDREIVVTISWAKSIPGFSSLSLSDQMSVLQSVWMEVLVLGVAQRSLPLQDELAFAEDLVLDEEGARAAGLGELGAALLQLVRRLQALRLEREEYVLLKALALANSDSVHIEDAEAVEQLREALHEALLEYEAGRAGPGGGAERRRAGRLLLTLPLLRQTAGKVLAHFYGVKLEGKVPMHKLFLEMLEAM
# Assay: TR-FRET assay (disruption of co-activator peptide binding to ERR1 LBD)
# Type: biochemical
# Settings: 6 nM 6His-ERR1LBD, 6 nM GST-SRC-2 peptide; average of 3 independent experiments
# In short: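 Homogeneous TR-FRET measuring displacement of GST-hSRC2 co-activator peptide (6 nM) from His-tagged ERR1 LBD (6 nM), detected with α-GST Eu cryptate (30 nM) and α-His-XL665 (7.5 nM). Buffer 25 mM Tris pH 8, 2.5 mM Hepes, 20 mM KCl, 1 mM DTT, 0.05 mg/mL delipidated BSA; equilibration 4-18 h at 25° C. Hyperbolic dose-response fit, mean of 3 experiments.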
row,EC50,Structure (SMILES)
1,7 nM,"O=C(O)CN1C(=O)S/C(=C\c2ccc3c(c2)c(Br)nn3Cc2ccc(Cl)cc2C(F)(F)F)C1=O [Compound 407, [(5Z)-5-({3-Bromo-1-[4-chloro-2-(trifluoromethyl)benzyl]-1H-indazol-5-yl}methylidene)-2,4-dioxo-1,3-thiazolidin-3-yl]acetic acid]"
2,50 nM,"NC(=O)c1nn(Cc2ccc(Cl)cc2C(F)(F)F)c2ccc(/C=C3\SC(=O)N(CC(=O)O)C3=O)cc12 [Compound 417, [(5Z)-5-({3-Carbamoyl-1-[4-chloro-2-(trifluoromethyl)benzyl]-1H-indazol-5-yl}methylidene)-2,4-dioxo-1,3-thiazolidin-3-yl]acetic acid]"
3,23 nM,"Cc1nn(Cc2ccc(Cl)cc2C(F)(F)F)c2ccc(/C=C3\SC(=O)N(NS(C)(=O)=O)C3=O)cc12 [Compound 365, N-[(5Z)-5-({1-[4-Chloro-2-(trifluoromethyl)benzyl]-3-methyl-1H-indazol-5-yl}methylidene)-2,4-dioxo-1,3-thiazolidin-3-yl]methanesulfonamide]"
4,39 nM,"O=C1S/C(=C\c2ccc3c(cnn3Cc3ccc(Cl)cc3C(F)(F)F)c2)C(=O)N1CCNS(=O)(=O)CCl [Compound 385, 1-Chloro-N-{2-[(5Z)-5-({1-[4-chloro-2-(trifluoromethyl)benzyl]-1H-indazol-5-yl}methylidene)-2,4-dioxo-1,3-thiazolidin-3-yl]ethyl}methanesulfonamide]"
5,62 nM,"Nc1nc(CN2C(=O)S/C(=C\c3ccc4c(cnn4Cc4ccc(Cl)cc4C(F)(F)F)c3)C2=O)cs1 [Compound 400, (5Z)-3-[(2-Amino-1,3-thiazol-4-yl)methyl]-5-({1-[4-chloro-2-(trifluoromethyl)benzyl]-1H-indazol-5-yl}methylidene)-1,3-thiazolidine-2,4-dione]"
6,31 nM,"CCN1C[C@@H](F)[C@H](N2C(=O)S/C(=C\c3ccc4c(cnn4Cc4ccc(Cl)cc4C(F)(F)F)c3)C2=O)C1 (relative stereo) [Compound 320, (5Z)-5-({1-[4-Chloro-2-(trifluoromethyl)benzyl]-1H-indazol-5-yl}methylidene)-3-[trans-1-ethyl-4-fluoropyrrolidin-3-yl]-1,3-thiazolidine-2,4-dione]"
7,28 nM,"CC(=O)Nc1nc(C)c(S(=O)(=O)NCCN2C(=O)S/C(=C\c3ccc4c(cnn4Cc4ccc(Cl)cc4C(F)(F)F)c3)C2=O)s1 [Compound 420, N-[5-({2-[(5Z)-5-({1-[4-Chloro-2-(trifluoromethyl)benzyl]-1H-indazol-5-yl}methylidene)-2,4-dioxo-1,3-thiazolidin-3-yl]ethyl}sulfamoyl)-4-methyl-1,3-thiazol-2-yl]acetamide]"
8,65 nM,"O=C(O)/C=C/CN1C(=O)S/C(=C\c2ccc3c(cnn3Cc3ccc(Cl)cc3C(F)(F)F)c2)C1=O [Compound 376, (2E)-4-[(5Z)-5-({1-[4-Chloro-2-(trifluoromethyl)benzyl]-1H-indazol-5-yl}methylidene)-2,4-dioxo-1,3-thiazolidin-3-yl]but-2-enoic acid]"
9,106 nM,"COC(=O)N1CCN(CCN2C(=O)S/C(=C\c3ccc4c(cnn4Cc4ccc(Cl)cc4C(F)(F)F)c3)C2=O)S1(=O)=O [Compound 339, Methyl 5-{2-[(5Z)-5-({1-[4-chloro-2-(trifluoromethyl)benzyl]-1H-indazol-5-yl}methylidene)-2,4-dioxo-1,3-thiazolidin-3-yl]ethyl}-1,2,5-thiadiazolidine-2-carboxylate 1,1-dioxide]"
10,29 nM,"O=C1S/C(=C\c2ccc3c(cnn3Cc3ccc(Cl)cc3C(F)(F)F)c2)C(=O)N1Cc1nccn1S(=O)(=O)C(F)(F)F [Compound 411, (5Z)-5-({1-[4-Chloro-2-(trifluoromethyl)benzyl]-1H-indazol-5-yl}methylidene)-3-({1-[(trifluoromethyl)sulfonyl]-1H-imidazol-2-yl}methyl)-1,3-thiazolidine-2,4-dione]"

# Further lines, the compound ahead of its results:
row,Structure (SMILES),EC50
1,"O=C1S/C(=C\c2ccc3c(cnn3Cc3ccc(Cl)cc3C(F)(F)F)c2)C(=O)N1CCN1CCCC(F)C1 (stereo not shown) [Compound 74, (5Z)-5-({1-[4-Chloro-2-(trifluoromethyl)benzyl]-1H-indazol-5-yl}methylidene)-3-[2-(3-fluoropiperidin-1-yl)ethyl]-1,3-thiazolidine-2,4-dione]",110 nM
2,"O=C1S/C(=C\c2ccc3c(cnn3Cc3ccc(Cl)cc3C(F)(F)F)c2)C(=O)N1C1(C(=O)O)CCCCC1 [Compound 218, 1-[(5Z)-5-({1-[4-Chloro-2-(trifluoromethyl)benzyl]-1H-indazol-5-yl}methylidene)-2,4-dioxo-1,3-thiazolidin-3-yl]cyclohexanecarboxylic acid]",88 nM
3,"O=C1S/C(=C\c2ccc3c(cnn3Cc3ccc(C(F)(F)F)cc3C(F)(F)F)c2)C(=O)N1C[C@H]1CN2CCC[C@H]2CO1 [Compound 208, (5Z)-5-({1-[2,4-Bis(trifluoromethyl)benzyl]-1H-indazol-5-yl}methylidene)-3-[(3R,8aS)-hexahydro-1H-pyrrolo[2,1-c][1,4]oxazin-3-ylmethyl]-1,3-thiazolidine-2,4-dione]",136 nM
4,"COc1ccc(Cn2ncc3cc(/C=C4\SC(=O)N(C5CCN(S(N)(=O)=O)CC5)C4=O)ccc32)c(C(F)(F)F)c1 [Compound 32, 4-[(5Z)-5-({1-[4-Methoxy-2-(trifluoromethyl)benzyl]-1H-indazol-5-yl}methylidene)-2,4-dioxo-1,3-thiazolidin-3-yl]piperidine-1-sulfonamide]",15 nM
5,"O=C1S/C(=C\c2ccc3c(cnn3Cc3ccc(C(F)(F)F)cc3C(F)(F)F)c2)C(=O)N1C[C@@H]1CCCN1 [Compound 83, (5Z)-5-({1-[2,4-Bis(trifluoromethyl)benzyl]-1H-indazol-5-yl}methylidene)-3-[(2S)-pyrrolidin-2-ylmethyl]-1,3-thiazolidine-2,4-dione]",82 nM
6,"O=C1OCCN1CCN1C(=O)S/C(=C\c2ccc3c(cnn3Cc3ccc(Cl)cc3C(F)(F)F)c2)C1=O [Compound 131, (5Z)-5-({1-[4-Chloro-2-(trifluoromethyl)benzyl]-1H-indazol-5-yl}methylidene)-3-[2-(2-oxo-1,3-oxazolidin-3-yl)ethyl]-1,3-thiazolidine-2,4-dione]",5 nM
7,"O=C1S/C(=C\c2ccc3c(cnn3Cc3ccc(Cl)cc3C(F)(F)F)c2)C(=O)N1Cc1nc[nH]n1 [Compound 90, (5Z)-5-({1-[4-Chloro-2-(trifluoromethyl)benzyl]-1H-indazol-5-yl}methylidene)-3-(1H-1,2,4-triazol-3-ylmethyl)-1,3-thiazolidine-2,4-dione]",28 nM
8,"COc1ccc(Cn2ncc3cc(/C=C4\SC(=O)N(C[C@@H]5CCCN5C)C4=O)ccc32)c(C(F)(F)F)c1 [Compound 23, (5Z)-5-({1-[4-Methoxy-2-(trifluoromethyl)benzyl]-1H-indazol-5-yl}methylidene)-3-{[(2S)-1-methylpyrrolidin-2-yl]methyl}-1,3-thiazolidine-2,4-dione]",45 nM
9,"O=C1S/C(=C\c2ccc3c(cnn3Cc3ccc(Cl)cc3C(F)(F)F)c2)C(=O)N1CC(O)C1CCNCC1 (stereo not shown) [Compound 285, (5Z)-5-({1-[4-Chloro-2-(trifluoromethyl)benzyl]-1H-indazol-5-yl}methylidene)-3-(2-hydroxy-2-piperidin-4-ylethyl)-1,3-thiazolidine-2,4-dione]",38 nM
10,"N=C(N)NOCCN1C(=O)S/C(=C\c2ccc3c(ccn3Cc3ccc(Cl)cc3C(F)(F)F)c2)C1=O [Compound 257, 1-{2-[(5Z)-5-({1-[4-Chloro-2-(trifluoromethyl)benzyl]-1H-indol-5-yl}methylidene)-2,4-dioxo-1,3-thiazolidin-3-yl]ethoxy}guanidine]",74 nM
11,"COc1nn(Cc2ccc(Cl)cc2C(F)(F)F)c2ccc(/C=C3\SC(=O)N(C4CCNCC4)C3=O)cc12 [Compound 29, (5Z)-5-({1-[4-Chloro-2-(trifluoromethyl)benzyl]-3-methoxy-1H-indazol-5-yl}methylidene)-3-piperidin-4-yl-1,3-thiazolidine-2,4-dione]",95 nM
12,"Cc1nn(Cc2ccc(Cl)cc2C(F)(F)F)c2ccc(/C=C3\SC(=O)N(CC(=O)NS(=O)(=O)N(C)C)C3=O)cc12 [Compound 39, 2-[(5Z)-5-({1-[4-Chloro-2-(trifluoromethyl)benzyl]-3-methyl-1H-indazol-5-yl}methylidene)-2,4-dioxo-1,3-thiazolidin-3-yl]-N-(dimethylsulfamoyl)acetamide]",43 nM
13,"CN1CC[C@@H](N2C(=O)S/C(=C\c3ccc4c(cnn4Cc4ccc(C(F)(F)F)cc4C(F)(F)F)c3)C2=O)[C@H](F)C1 (relative stereo) [Compound 278, (5Z)-5-({1-[2,4-Bis(trifluoromethyl)benzyl]-1H-indazol-5-yl}methylidene)-3-(trans-3-fluoro-1-methylpiperidin-4-yl)-1,3-thiazolidine-2,4-dione]",71 nM
14,"CN(C)CCN1C(=O)S/C(=C\c2ccc3c(ccn3Cc3ccc(F)cc3C(F)(F)F)c2)C1=O [Compound 250, (5Z)-3-[2-(Dimethylamino)ethyl]-5-[(1-{[4-fluoro-2-(trifluoromethyl)phenyl]methyl}-1H-indol-5-yl)methylidene]-1,3-thiazolidine-2,4-dione]",200 nM
15,"O=C1S/C(=C\c2ccc3c(cnn3Cc3ccc(Cl)cc3C(F)(F)F)c2)C(=O)N1C[C@@H]1CCCN1 [Compound 145, (5Z)-5-({1-[4-Chloro-2-(trifluoromethyl)benzyl]-1H-indazol-5-yl}methylidene)-3-[(2S)-pyrrolidin-2-ylmethyl]-1,3-thiazolidine-2,4-dione]",27 nM
